In the kinase profiling compilation of Christmann-Franck et al. (2016):

Legend:
Assay in all cases: KINOMEscan competition binding
STK32A (human) = STK32A (human) (UniProt Q8WU08); details: compound 1.0 µM
TLK2 (human) = TLK2 (human) (UniProt Q86UE8); details: compound 1.0 µM
CAMK2A (human) = CAMK2A (human) (UniProt Q9UQM7); details: compound 1.0 µM
MAPK8 (human) = MAPK8 (human) (UniProt P45983); details: compound 1.0 µM
AAK1 (human) = AAK1 (human) (UniProt Q2M2I8); details: compound 1.0 µM
TIE1 (human) = TIE1 (human) (UniProt P35590); details: compound 1.0 µM
Sequence of TIE1 (human) (P35590 whole entry, looked up): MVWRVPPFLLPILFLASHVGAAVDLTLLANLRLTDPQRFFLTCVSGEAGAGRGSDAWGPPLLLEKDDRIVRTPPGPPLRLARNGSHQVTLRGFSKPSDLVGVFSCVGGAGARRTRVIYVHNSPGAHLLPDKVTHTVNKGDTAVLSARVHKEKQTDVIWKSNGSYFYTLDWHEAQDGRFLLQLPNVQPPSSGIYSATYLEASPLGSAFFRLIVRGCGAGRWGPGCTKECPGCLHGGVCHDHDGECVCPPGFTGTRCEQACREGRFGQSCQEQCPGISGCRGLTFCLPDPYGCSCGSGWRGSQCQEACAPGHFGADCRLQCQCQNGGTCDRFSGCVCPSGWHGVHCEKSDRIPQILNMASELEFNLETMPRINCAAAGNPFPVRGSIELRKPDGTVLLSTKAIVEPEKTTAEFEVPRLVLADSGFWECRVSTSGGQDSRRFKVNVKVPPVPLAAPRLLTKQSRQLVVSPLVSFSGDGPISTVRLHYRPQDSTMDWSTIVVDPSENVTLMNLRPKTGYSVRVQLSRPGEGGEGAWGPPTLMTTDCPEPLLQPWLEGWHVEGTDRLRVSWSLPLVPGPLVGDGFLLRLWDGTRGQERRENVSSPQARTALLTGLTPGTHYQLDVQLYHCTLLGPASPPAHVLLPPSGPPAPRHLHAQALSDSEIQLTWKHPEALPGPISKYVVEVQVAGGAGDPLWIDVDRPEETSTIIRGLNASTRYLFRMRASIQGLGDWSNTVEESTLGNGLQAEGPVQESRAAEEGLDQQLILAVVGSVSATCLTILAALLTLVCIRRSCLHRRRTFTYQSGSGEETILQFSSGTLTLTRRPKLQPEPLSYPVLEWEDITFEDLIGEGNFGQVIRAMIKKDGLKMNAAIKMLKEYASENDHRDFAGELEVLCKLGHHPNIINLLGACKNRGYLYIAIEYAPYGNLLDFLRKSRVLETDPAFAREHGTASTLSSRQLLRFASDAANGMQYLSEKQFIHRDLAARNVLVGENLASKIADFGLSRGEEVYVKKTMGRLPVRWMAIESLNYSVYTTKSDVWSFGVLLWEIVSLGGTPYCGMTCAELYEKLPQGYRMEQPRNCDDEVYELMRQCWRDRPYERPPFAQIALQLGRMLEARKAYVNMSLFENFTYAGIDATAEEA

PKN1 (human) = PKN1 (human) (UniProt Q16512); details: compound 1.0 µM
PI4KB (human) = PI4KB (human) (UniProt Q9UBF8); details: compound 1.0 µM
YES1 (human) = YES1 (human) (UniProt P07947); details: compound 1.0 µM
[1] = system: PIK3CA (human), P42336 [M1043I]; details: compound 1.0 µM
Sequence of PIK3CA (human), P42336 [M1043I] (P42336 whole entry M1043I, looked up): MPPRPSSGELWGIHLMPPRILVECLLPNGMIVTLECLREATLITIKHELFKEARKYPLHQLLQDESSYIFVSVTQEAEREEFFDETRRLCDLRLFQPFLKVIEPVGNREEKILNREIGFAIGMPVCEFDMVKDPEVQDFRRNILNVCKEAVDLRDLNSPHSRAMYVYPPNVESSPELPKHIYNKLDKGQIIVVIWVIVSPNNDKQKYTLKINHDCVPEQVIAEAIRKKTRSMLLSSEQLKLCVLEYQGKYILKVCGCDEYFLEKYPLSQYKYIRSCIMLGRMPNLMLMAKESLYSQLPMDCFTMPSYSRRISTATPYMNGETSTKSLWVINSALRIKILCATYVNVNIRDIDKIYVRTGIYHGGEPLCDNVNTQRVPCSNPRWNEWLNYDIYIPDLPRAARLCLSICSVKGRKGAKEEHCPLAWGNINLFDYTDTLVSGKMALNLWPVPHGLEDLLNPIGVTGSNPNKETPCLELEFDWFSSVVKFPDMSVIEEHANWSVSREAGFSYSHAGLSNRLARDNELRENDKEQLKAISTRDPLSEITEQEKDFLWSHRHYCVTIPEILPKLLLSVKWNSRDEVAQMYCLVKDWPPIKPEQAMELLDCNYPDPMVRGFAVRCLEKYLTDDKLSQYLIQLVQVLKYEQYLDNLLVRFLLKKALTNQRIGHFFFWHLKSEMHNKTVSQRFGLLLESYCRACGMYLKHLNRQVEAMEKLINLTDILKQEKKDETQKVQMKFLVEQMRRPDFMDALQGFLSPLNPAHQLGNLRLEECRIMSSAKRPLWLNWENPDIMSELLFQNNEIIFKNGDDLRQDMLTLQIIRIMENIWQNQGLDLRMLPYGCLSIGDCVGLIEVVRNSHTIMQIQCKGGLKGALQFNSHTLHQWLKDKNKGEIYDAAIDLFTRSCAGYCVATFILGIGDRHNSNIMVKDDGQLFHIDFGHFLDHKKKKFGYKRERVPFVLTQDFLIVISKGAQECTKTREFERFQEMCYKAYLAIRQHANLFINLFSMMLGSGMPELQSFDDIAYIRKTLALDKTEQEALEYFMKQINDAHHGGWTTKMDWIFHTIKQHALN

MAPK13 (human) = MAPK13 (human) (UniProt O15264); details: compound 1.0 µM
PRKACA (human) = PRKACA (human) (UniProt P17612); details: compound 1.0 µM
STK17B (human) = STK17B (human) (UniProt O94768); details: compound 1.0 µM
FER (human) = FER (human) (UniProt P16591); details: compound 1.0 µM
PDGFRB (human) = PDGFRB (human) (UniProt P09619); details: compound 1.0 µM
IRAK3 (human) = IRAK3 (human) (UniProt Q9Y616); details: compound 1.0 µM
PIM2 (human) = PIM2 (human) (UniProt Q9P1W9); details: compound 1.0 µM
LRRK2 (human) = LRRK2 (human) (UniProt Q5S007); details: compound 1.0 µM
STK24 (human) = STK24 (human) (UniProt Q9Y6E0); details: compound 1.0 µM
Sequence of STK24 (human) (Q9Y6E0 whole entry, looked up): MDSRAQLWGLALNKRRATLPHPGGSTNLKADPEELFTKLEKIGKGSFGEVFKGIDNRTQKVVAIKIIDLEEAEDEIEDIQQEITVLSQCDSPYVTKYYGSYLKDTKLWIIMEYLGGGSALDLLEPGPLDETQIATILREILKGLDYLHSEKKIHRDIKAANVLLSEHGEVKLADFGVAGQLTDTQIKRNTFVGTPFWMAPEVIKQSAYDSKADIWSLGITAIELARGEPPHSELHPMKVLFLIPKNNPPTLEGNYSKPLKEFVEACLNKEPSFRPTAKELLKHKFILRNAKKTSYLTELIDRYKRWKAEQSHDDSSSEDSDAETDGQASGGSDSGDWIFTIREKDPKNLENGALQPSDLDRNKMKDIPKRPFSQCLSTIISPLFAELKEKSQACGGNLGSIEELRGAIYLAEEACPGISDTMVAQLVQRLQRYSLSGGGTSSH

PIP5K1C (human) = PIP5K1C (human) (UniProt O60331); details: compound 1.0 µM
ULK3 (human) = ULK3 (human) (UniProt Q6PHR2); details: compound 1.0 µM
PLK3 (human) = PLK3 (human) (UniProt Q9H4B4); details: compound 1.0 µM
TTK (human) = TTK (human) (UniProt P33981); details: compound 1.0 µM
DYRK2 (human) = DYRK2 (human) (UniProt Q92630)
Sequence of DYRK2 (human) (Q92630 whole entry, looked up): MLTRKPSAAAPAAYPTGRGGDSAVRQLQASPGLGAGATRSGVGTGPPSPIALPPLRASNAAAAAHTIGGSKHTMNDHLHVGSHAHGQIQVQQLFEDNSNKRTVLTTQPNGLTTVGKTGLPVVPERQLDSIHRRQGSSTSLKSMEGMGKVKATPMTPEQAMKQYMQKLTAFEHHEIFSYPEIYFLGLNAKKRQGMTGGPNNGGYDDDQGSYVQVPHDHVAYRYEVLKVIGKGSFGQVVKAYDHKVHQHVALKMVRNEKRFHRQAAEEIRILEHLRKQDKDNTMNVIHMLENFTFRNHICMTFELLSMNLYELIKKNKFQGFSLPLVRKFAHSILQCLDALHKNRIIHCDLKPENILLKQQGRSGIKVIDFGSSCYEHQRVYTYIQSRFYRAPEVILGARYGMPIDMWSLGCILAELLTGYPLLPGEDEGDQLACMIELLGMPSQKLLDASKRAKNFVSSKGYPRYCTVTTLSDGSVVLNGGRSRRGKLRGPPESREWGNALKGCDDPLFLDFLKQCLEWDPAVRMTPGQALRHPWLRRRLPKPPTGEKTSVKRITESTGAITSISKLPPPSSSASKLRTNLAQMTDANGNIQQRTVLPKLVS

STK32B (human) = STK32B (human) (UniProt Q9NY57); details: compound 1.0 µM
Sequence of STK32B (human) (Q9NY57 whole entry, looked up): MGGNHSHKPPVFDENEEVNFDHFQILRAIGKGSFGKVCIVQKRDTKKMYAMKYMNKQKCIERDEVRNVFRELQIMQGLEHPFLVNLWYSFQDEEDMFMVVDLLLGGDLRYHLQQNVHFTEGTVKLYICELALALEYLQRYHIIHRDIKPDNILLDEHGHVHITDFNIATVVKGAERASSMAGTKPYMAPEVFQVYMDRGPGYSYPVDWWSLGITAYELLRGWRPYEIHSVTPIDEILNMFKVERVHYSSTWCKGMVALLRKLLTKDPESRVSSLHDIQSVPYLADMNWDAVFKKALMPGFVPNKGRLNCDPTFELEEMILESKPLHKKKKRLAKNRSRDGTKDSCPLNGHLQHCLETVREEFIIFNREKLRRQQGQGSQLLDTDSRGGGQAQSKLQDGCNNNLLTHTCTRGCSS

CDKL1 (human) = CDKL1 (human) (UniProt Q00532); details: compound 1.0 µM
MAP2K7 (human) = MAP2K7 (human) (UniProt O14733); details: compound 1.0 µM
[2] = system: RET (human), P07949 [V804L]; details: compound 1.0 µM
Sequence of RET (human), P07949 [V804L] (P07949 whole entry V804L, looked up): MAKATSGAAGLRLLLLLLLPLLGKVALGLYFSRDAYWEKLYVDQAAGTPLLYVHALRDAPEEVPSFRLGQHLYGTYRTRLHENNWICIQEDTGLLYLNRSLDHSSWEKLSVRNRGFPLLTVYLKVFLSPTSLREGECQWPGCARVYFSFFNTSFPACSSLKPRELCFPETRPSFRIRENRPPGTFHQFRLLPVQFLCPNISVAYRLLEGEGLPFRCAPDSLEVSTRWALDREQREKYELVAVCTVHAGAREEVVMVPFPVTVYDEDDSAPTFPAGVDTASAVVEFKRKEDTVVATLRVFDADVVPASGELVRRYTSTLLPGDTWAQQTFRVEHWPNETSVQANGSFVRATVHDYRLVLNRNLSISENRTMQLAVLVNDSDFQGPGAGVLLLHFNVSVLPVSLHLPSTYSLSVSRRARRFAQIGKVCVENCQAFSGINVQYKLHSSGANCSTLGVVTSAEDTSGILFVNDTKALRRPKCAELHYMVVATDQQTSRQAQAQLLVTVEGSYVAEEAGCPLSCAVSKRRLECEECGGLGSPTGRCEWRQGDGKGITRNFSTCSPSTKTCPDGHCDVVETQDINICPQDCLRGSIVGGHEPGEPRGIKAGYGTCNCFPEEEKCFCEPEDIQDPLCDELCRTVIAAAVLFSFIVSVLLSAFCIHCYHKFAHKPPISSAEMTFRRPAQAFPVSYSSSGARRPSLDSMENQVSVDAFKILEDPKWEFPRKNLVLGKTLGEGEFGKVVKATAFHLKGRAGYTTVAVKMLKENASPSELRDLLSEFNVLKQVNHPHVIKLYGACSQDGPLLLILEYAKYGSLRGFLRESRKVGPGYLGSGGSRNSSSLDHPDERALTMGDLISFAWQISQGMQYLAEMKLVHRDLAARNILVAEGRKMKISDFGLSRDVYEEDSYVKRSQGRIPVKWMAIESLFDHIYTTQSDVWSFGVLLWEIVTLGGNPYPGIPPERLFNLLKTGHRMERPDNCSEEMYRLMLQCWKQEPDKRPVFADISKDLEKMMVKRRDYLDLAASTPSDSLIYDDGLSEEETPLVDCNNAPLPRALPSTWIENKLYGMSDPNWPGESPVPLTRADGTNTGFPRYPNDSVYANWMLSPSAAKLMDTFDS

MAP3K2 (human) = MAP3K2 (human) (UniProt Q9Y2U5); details: compound 1.0 µM
RIPK2 (human) = RIPK2 (human) (UniProt O43353); details: compound 1.0 µM
SGK3 (human) = SGK3 (human) (UniProt Q96BR1); details: compound 1.0 µM
RPS6KA6 KD1 (human) = RPS6KA6 KD1 (human) (UniProt Q9UK32); details: compound 1.0 µM
PRKD2 (human) = PRKD2 (human) (UniProt Q9BZL6); details: compound 1.0 µM
RPS6KA1 KD1 (human) = RPS6KA1 KD1 (human) (UniProt Q15418); details: compound 1.0 µM
MAP2K6 (human) = MAP2K6 (human) (UniProt P52564); details: compound 1.0 µM
MAP3K3 (human) = MAP3K3 (human) (UniProt Q99759); details: compound 1.0 µM
PLK1 (human) = PLK1 (human) (UniProt P53350); details: compound 1.0 µM
PAK6 (human) = PAK6 (human) (UniProt Q9NQU5); details: compound 1.0 µM
LTK (human) = LTK (human) (UniProt P29376); details: compound 1.0 µM
NTRK2 (human) = NTRK2 (human) (UniProt Q16620); details: compound 1.0 µM
PIM3 (human) = PIM3 (human) (UniProt Q86V86); details: compound 1.0 µM
CSNK1E (human) = CSNK1E (human) (UniProt P49674); details: compound 1.0 µM
HCK (human) = HCK (human) (UniProt P08631); details: compound 1.0 µM

Work on CN(C)C/C=C/C(=O)Nc1cccc(C(=O)Nc2ccc(Nc3nccc(-c4cccnc4)n3)cc2)c1 yielded a kinase still bound, per cent of control (STK32A (human)) of 100%, a kinase still bound, per cent of control (TLK2 (human)) of 92% and a kinase still bound, per cent of control (CAMK2A (human)) of 100%. It also gave a kinase still bound, per cent of control (MAPK8 (human)) of 0%, a kinase still bound, per cent of control (AAK1 (human)) of 18% and a kinase still bound, per cent of control (TIE1 (human)) of 100%. The kinase still bound, per cent of control (PKN1 (human)) was 100%, the kinase still bound, per cent of control (PI4KB (human)) was 71% and the kinase still bound, per cent of control (YES1 (human)) was 98%. It also gave a kinase still bound, per cent of control [1] of 74%, a kinase still bound, per cent of control (MAPK13 (human)) of 100% and a kinase still bound, per cent of control (PRKACA (human)) of 83%. For the same compound, the kinase still bound, per cent of control (STK17B (human)) was 24%, the kinase still bound, per cent of control (FER (human)) was 100% and the kinase still bound, per cent of control (PDGFRB (human)) was 6%. It also gave a kinase still bound, per cent of control (IRAK3 (human)) of 20%, a kinase still bound, per cent of control (PIM2 (human)) of 100% and a kinase still bound, per cent of control (LRRK2 (human)) of 63%. For the same compound, the kinase still bound, per cent of control (STK24 (human)) was 86%, the kinase still bound, per cent of control (PIP5K1C (human)) was 22% and the kinase still bound, per cent of control (ULK3 (human)) was 7%. It also gave a kinase still bound, per cent of control (PLK3 (human)) of 75%, a kinase still bound, per cent of control (TTK (human)) of 97% and a Kd (DYRK2 (human)) of 120 nM. It also gave a kinase still bound, per cent of control (DYRK2 (human); compound 1.0 µM) of 3.2%, a kinase still bound, per cent of control (STK32B (human)) of 100% and a kinase still bound, per cent of control (CDKL1 (human)) of 54%. For the same compound, the kinase still bound, per cent of control (MAP2K7 (human)) was 100%, the kinase still bound, per cent of control [2] was 100% and the kinase still bound, per cent of control (MAP3K2 (human)) was 100%. The kinase still bound, per cent of control (RIPK2 (human)) was 55%, the kinase still bound, per cent of control (SGK3 (human)) was 100% and the kinase still bound, per cent of control (RPS6KA6 KD1 (human)) was 88%. It also gave a kinase still bound, per cent of control (PRKD2 (human)) of 100%, a kinase still bound, per cent of control (RPS6KA1 KD1 (human)) of 100% and a kinase still bound, per cent of control (MAP2K6 (human)) of 53%. For the same compound, the kinase still bound, per cent of control (MAP3K3 (human)) was 77%, the kinase still bound, per cent of control (PLK1 (human)) was 100% and the kinase still bound, per cent of control (PAK6 (human)) was 87%. The kinase still bound, per cent of control (LTK (human)) was 100%, the kinase still bound, per cent of control (NTRK2 (human)) was 94% and the kinase still bound, per cent of control (PIM3 (human)) was 92%. It also gave a kinase still bound, per cent of control (CSNK1E (human)) of 6.8% and a kinase still bound, per cent of control (HCK (human)) of 100%.
